# Data as given in paper PMC6544628, “Plasmodium pseudo-Tyrosine Kinase-like binds PP1 and SERA5 and is exported to host erythrocytes” (Scientific Reports, 2019).
# Target: T1, pTKL_KD_WT (PfpTKL kinase domain) (Plasmodium falciparum, UniProt Q8IIT5)
# T1 construct: gene pTKL
# Settings: labelled compound (ATP immobilised on agarose); protein dialyzed against PBS with 1 mM DTT and 1 mM EDTA
# T1 sequence (Q8IIT5 1098-1501): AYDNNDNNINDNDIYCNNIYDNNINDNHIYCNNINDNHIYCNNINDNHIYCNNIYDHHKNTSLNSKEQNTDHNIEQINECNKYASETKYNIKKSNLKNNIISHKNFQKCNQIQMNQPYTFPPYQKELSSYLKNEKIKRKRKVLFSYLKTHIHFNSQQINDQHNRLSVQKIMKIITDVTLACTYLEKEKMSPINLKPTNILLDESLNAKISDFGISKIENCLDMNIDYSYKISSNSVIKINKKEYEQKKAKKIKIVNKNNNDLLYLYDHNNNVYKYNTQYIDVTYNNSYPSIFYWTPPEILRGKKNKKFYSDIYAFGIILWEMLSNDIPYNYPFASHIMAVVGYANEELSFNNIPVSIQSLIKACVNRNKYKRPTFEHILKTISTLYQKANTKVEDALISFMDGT
smiles,measurement,value
Nc1ncnc2c1ncn2[C@@H]1O[C@H](COP(=O)(O)OP(=O)(O)OP(=O)(O)O)[C@@H](O)[C@H]1O [ATP],"ATP-agarose bead pull-down, anti-His6 western blot",The PfpTKL pseudo-KD was able to bind ATP but did not display any kinase activity
